Test results: PubChem BioAssay (NCI)
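How tested: cells in 96-well plates exposed to compound for 48 hours at five concentrations. TGI: total growth inhibition.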

Columns and labels:
Experiment in all cases: inhibition of tumour cell growth, NCI panel, 48 h
[1] = system: 786-0 renal
[2] = system: A498 renal
[3] = system: A549 NSCLC
[4] = system: ACHN renal
[5] = system: BT-549 breast
[6] = system: CAKI-1 renal
[7] = system: CCRF-CEM leukemia
[8] = system: COLO 205 colon
[9] = system: DU-145 prostate
[10] = system: EKVX NSCLC
[11] = system: HCT-116 colon
[12] = system: HCT-15 colon
[13] = system: HL-60(TB) leukemia
[14] = system: HOP-62 NSCLC
[15] = system: HOP-92 NSCLC
[16] = system: HS 578T breast
[17] = system: HT29 colon
[18] = system: IGROV1 ovarian
[19] = system: K-562 leukemia
[20] = system: KM12 colon
[21] = system: LOX IMVI melanoma
[22] = system: M14 melanoma
[23] = system: MALME-3M melanoma
[24] = system: MCF7 breast
[25] = system: MDA-MB-231 breast
[26] = system: MDA-MB-435
[27] = system: MDA-N
[28] = system: MOLT-4 leukemia
[29] = system: NCI-H226 lung
[30] = system: NCI-H460 lung
[31] = system: NCI-H522 lung
[32] = system: NCI/ADR-RES ovarian
[33] = system: OVCAR-3 ovarian
[34] = system: OVCAR-4 ovarian
[35] = system: OVCAR-5 ovarian
[36] = system: OVCAR-8 ovarian
[37] = system: PC-3 prostate
[38] = system: RPMI-8226 leukemia
[39] = system: RXF 393 renal
[40] = system: SF-268 CNS
[41] = system: SF-295 CNS
[42] = system: SF-539 CNS
[43] = system: SK-MEL-2 melanoma
[44] = system: SK-MEL-28 melanoma
[45] = system: SK-MEL-5 melanoma
[46] = system: SK-OV-3 ovarian
[47] = system: SNB-19 CNS
[48] = system: SNB-75 CNS
[49] = system: SR leukemia
[50] = system: T-47D breast
[51] = system: TK-10 renal
[52] = system: U251 CNS
[53] = system: UACC-257 melanoma
[54] = system: UO-31 renal
[55] = system: NCI-H23 lung
[56] = system: SN12C renal
[57] = system: SW-620 colon
[58] = system: UACC-62 melanoma

Compound `COc1ccc(/C=C/c2nsc(/C=C/c3ccc(OC)cc3)n2)cc1` has a TGI [1] of 41.8 µM, a TGI [2] of over 100 µM and a TGI [3] of over 100 µM. It also gave a TGI [4] of over 100 µM, a TGI [5] of over 100 µM and a TGI [6] of over 100 µM. It also gave a TGI [7] of over 100 µM, a TGI [8] of over 100 µM and a TGI [9] of over 100 µM. The TGI [10] was over 100 µM, the TGI [11] was over 100 µM and the TGI [12] was over 100 µM. For the same compound, the TGI [13] was over 100 µM, the TGI [14] was over 100 µM and the TGI [15] was over 100 µM. It also gave a TGI [16] of over 100 µM, a TGI [17] of over 100 µM and a TGI [18] of over 100 µM. The TGI [19] was over 100 µM, the TGI [20] was over 100 µM and the TGI [21] was over 100 µM. The TGI [22] was over 100 µM, the TGI [23] was over 100 µM and the TGI [24] was over 100 µM. The TGI [25] was over 100 µM, the TGI [26] was over 100 µM and the TGI [27] was over 100 µM. For the same compound, the TGI [28] was over 100 µM, the TGI [29] was over 100 µM and the TGI [30] was 88.7 µM. For the same compound, the TGI [31] was over 100 µM, the TGI [32] was over 100 µM and the TGI [33] was over 100 µM. The TGI [34] was over 100 µM, the TGI [35] was over 100 µM and the TGI [36] was over 100 µM. The TGI [37] was over 100 µM, the TGI [38] was over 100 µM and the TGI [39] was over 100 µM. The TGI [40] was over 100 µM, the TGI [41] was over 100 µM and the TGI [42] was over 100 µM. It also gave a TGI [43] of over 100 µM, a TGI [44] of over 100 µM and a TGI [45] of over 100 µM. For the same compound, the TGI [46] was over 100 µM, the TGI [47] was over 100 µM and the TGI [48] was over 100 µM. For the same compound, the TGI [49] was over 100 µM, the TGI [50] was over 100 µM and the TGI [51] was over 100 µM. The TGI [52] was over 100 µM, the TGI [53] was over 100 µM and the TGI [54] was over 100 µM.
`O=C1CSC(c2ccccc2O)N1c1ccc(-c2ccc(-n3c(-c4ccccc4)nc4ccccc4c3=O)cc2)cc1` (stereo not given) gave a TGI [1] of 60.9 µM, a TGI [2] of over 100 µM and a TGI [3] of 77.8 µM. It also gave a TGI [5] of 55.7 µM, a TGI [6] of 69.1 µM and a TGI [7] of over 100 µM. It also gave a TGI [8] of 44.9 µM, a TGI [9] of over 100 µM and a TGI [10] of over 100 µM. It also gave a TGI [11] of over 100 µM, a TGI [12] of over 100 µM and a TGI [13] of over 100 µM. It also gave a TGI [14] of over 100 µM, a TGI [15] of over 100 µM and a TGI [16] of over 100 µM. It also gave a TGI [17] of 28.7 µM, a TGI [18] of over 100 µM and a TGI [19] of over 100 µM. It also gave a TGI [20] of 52.3 µM, a TGI [21] of 77.4 µM and a TGI [22] of over 100 µM. The TGI [23] was 49.3 µM, the TGI [24] was over 100 µM and the TGI [25] was over 100 µM. The TGI [26] was over 100 µM, the TGI [27] was over 100 µM and the TGI [28] was over 100 µM. For the same compound, the TGI [29] was over 100 µM, the TGI [55] was over 100 µM and the TGI [30] was over 100 µM. For the same compound, the TGI [31] was 44.7 µM, the TGI [32] was over 100 µM and the TGI [33] was over 100 µM. The TGI [34] was over 100 µM, the TGI [35] was over 100 µM and the TGI [36] was over 100 µM. The TGI [37] was 94.9 µM, the TGI [38] was over 100 µM and the TGI [39] was 91.9 µM. It also gave a TGI [40] of over 100 µM, a TGI [41] of 54.2 µM and a TGI [42] of over 100 µM. For the same compound, the TGI [44] was over 100 µM, the TGI [46] was over 100 µM and the TGI [56] was over 100 µM. The TGI [47] was over 100 µM, the TGI [48] was over 100 µM and the TGI [49] was over 100 µM. It also gave a TGI [57] of over 100 µM, a TGI [50] of over 100 µM and a TGI [51] of 71 µM. For the same compound, the TGI [52] was over 100 µM, the TGI [53] was over 100 µM and the TGI [58] was over 100 µM. It also gave a TGI [54] of over 100 µM.
Work on `C(=N\c1nc2cc3sc(/N=C/c4cccs4)nc3cc2s1)/c1cccs1` yielded a TGI [1] of over 100 µM, a TGI [2] of over 100 µM and a TGI [3] of over 100 µM. For the same compound, the TGI [4] was over 100 µM, the TGI [5] was over 100 µM and the TGI [6] was over 100 µM. The TGI [7] was over 100 µM, the TGI [8] was 12.4 µM and the TGI [9] was over 100 µM. The TGI [10] was over 100 µM, the TGI [11] was over 100 µM and the TGI [12] was over 100 µM. The TGI [13] was over 100 µM, the TGI [14] was over 100 µM and the TGI [15] was over 100 µM. It also gave a TGI [16] of over 100 µM, a TGI [17] of over 100 µM and a TGI [18] of over 100 µM. The TGI [19] was over 100 µM, the TGI [20] was over 100 µM and the TGI [21] was over 100 µM. For the same compound, the TGI [22] was over 100 µM, the TGI [23] was over 100 µM and the TGI [24] was over 100 µM. The TGI [25] was over 100 µM, the TGI [26] was over 100 µM and the TGI [27] was over 100 µM. It also gave a TGI [28] of over 100 µM, a TGI [29] of 88.1 µM and a TGI [55] of over 100 µM. For the same compound, the TGI [30] was over 100 µM, the TGI [31] was over 100 µM and the TGI [32] was over 100 µM. For the same compound, the TGI [33] was over 100 µM, the TGI [34] was over 100 µM and the TGI [35] was over 100 µM. The TGI [36] was over 100 µM, the TGI [37] was over 100 µM and the TGI [38] was over 100 µM. For the same compound, the TGI [39] was over 100 µM, the TGI [40] was over 100 µM and the TGI [41] was over 100 µM. For the same compound, the TGI [42] was over 100 µM, the TGI [43] was over 100 µM and the TGI [44] was over 100 µM. For the same compound, the TGI [45] was over 100 µM, the TGI [46] was over 100 µM and the TGI [56] was over 100 µM. It also gave a TGI [47] of over 100 µM, a TGI [48] of over 100 µM and a TGI [49] of over 100 µM. For the same compound, the TGI [50] was over 100 µM, the TGI [51] was over 100 µM and the TGI [52] was over 100 µM. For the same compound, the TGI [53] was over 100 µM and the TGI [54] was over 100 µM.
